Source: patent US20240024385A1, “PROBIOTIC STRAIN FOR REDUCING SERUM URIC ACID, COMPOSITION AND USE THEREOF” (Ningbo Beiyijia Biotechnology Co., Ltd., priority 2022, published 2024)

How the values were obtained:
serum uric acid = assay: Combined use of composition 6 with a uric acid-reducing drug, serum uric acid in hyperuricemia patients with tophi; format: in vivo, human; set-up: Serum uric acid: unit not given here; conditions: for Serum uric acid: hyperuricemia patients with tophi, febuxostat 20 mg/day or benzbromarone 25 mg/day; for Effect on increase of serum uric acid level caused by dissolution of urate crystals by composition 6: small dose combined with composition 6 (febuxostat 20 mg/day or benzbromarone 25 mg/day)
Description: The process of dissolving urate crystals and tophi will result in a temporary increase of the serum uric acid level, which may lead to acute gout inflammation. In order to relieve the increase of the serum uric acid level caused by the dissolution of urate crystals or tophi, the effect of combined use of the composition 6 with a small-dose uric acid-reducing drug on the inhibition of the rise of the serum uric acid level was investigated.
Fifty hyperuricemia patients with tophi were recruited as volunteers, divided into 5 groups, and separately administered with the composition 6 and the uric acid-reducing drug (febuxostat 20 mg/day or benzbromarone 25 mg/day) alone or in combination. The change of serum uric acid during the intervention period was observed.

[1] = 20° C.; cited from earlier work

| SMILES | Serum uric acid (serum uric acid; Day 0 (before intervention)) | Serum uric acid (serum uric acid; Day 30) | Serum uric acid (serum uric acid; Day 60) | Serum uric acid (serum uric acid; Day 90) | Effect on increase of serum uric acid level caused by dissolution of urate crystals by composition 6 (serum uric acid) | Solubility in water [1] |
| --- | --- | --- | --- | --- | --- | --- |
| Cc1nc(-c2ccc(OCC(C)C)c(C#N)c2)sc1C(=O)O [febuxostat] | 631 ± 51 | 571 ± 52 | 478 ± 57 | 416 ± 59 | can inhibit the increase of the serum uric acid level | – |
| CCc1oc2ccccc2c1C(=O)c1cc(Br)c(O)c(Br)c1 [benzbromarone] | 640 ± 78 | 593 ± 71 | 463 ± 53 | 405 ± 37 | can inhibit the increase of the serum uric acid level | – |
| Nc1nc2nc[nH]c2c(=O)[nH]1 [guanine] | – | – | – | – | – | 0.17 mg/100 mL |
| Nc1nc2c(ncn2[C@@H]2O[C@H](CO)[C@@H](O)[C@H]2O)c(=O)[nH]1 [guanosine] | – | – | – | – | – | 77.6 mg/100 mL |
| Nc1nc2c(ncn2[C@@H]2O[C@H](COP(=O)(O)O)[C@@H](O)[C@H]2O)c(=O)[nH]1 [guanosine monophosphate] | – | – | – | – | – | 20 g/100 mL |
